From ChEMBL document CHEMBL3576851, “Bacterial Sliding Clamp Inhibitors that Mimic the Sequential Binding Mechanism of Endogenous Linear Motifs” (J Med Chem, 2015) come the findings set out here.

Structures are written as SMILES. Activity calls are given as the source filed them. The calls are words filed in the database; no cut-off is given here. Some results are limits rather than exact numbers.

Assay [1] has as its target T1, Beta sliding clamp (Escherichia coli (strain K12), UniProt P0A988). In words: Inhibition of Escherichia coli DNA sliding clamp protein using N-fluorescein (FAM)-QLDLF-OH tracer by fluorescence polarization assay. Background: In fluorescence polarisation assays a small probe gives low polarisation when free and higher when bound to something large.
For assay [2], the target named is Beta sliding clamp (Escherichia coli (strain K12)) (UniProt P0A988). In words: Inhibition of Escherichia coli DNA sliding clamp protein assessed as reduction in DNA replication at >125 uM in presence of circular ssDNA, RNA primer template, SSB, Pol3-alpha subunit, reconstituted gamma3delta-delta' clamp loader complex by SYBR gold dye based agarose gel electrophoresis method.
Chain of Beta sliding clamp (Escherichia coli (strain K12)) (P0A988 whole entry): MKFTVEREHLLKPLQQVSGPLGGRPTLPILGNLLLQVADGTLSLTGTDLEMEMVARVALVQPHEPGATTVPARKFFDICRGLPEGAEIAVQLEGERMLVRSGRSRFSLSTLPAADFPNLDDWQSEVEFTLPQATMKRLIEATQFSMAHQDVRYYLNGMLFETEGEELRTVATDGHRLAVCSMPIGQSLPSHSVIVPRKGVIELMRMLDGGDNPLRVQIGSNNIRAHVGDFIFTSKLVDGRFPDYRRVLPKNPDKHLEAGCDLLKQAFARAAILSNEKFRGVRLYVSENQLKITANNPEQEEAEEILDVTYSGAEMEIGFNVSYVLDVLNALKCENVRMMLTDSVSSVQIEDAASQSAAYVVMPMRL

Assay [3] has as its target T1, Beta sliding clamp. In words: Binding affinity to Escherichia coli DNA sliding clamp protein at 298K by isothermal titration calorimetry. On the technique in general: Isothermal titration calorimetry measures the heat released or taken up as one component is titrated into another.
Assay [4] concerns the target Beta sliding clamp (Escherichia coli (strain K12)) (UniProt P0A988). Nature of the assay: Inhibition of Escherichia coli DNA sliding clamp protein assessed as reduction in DNA replication at 31 uM in presence of circular ssDNA, RNA primer template, SSB, Pol3-alpha subunit, reconstituted gamma3delta-delta' clamp loader complex by SYBR gold dye based agarose gel electrophoresis method.

T1 sequence (P0A988 whole entry): as above

For `CCNC(=O)Cn1c2c(c3cc(Cl)ccc31)CC[C@@H](C(=O)O)C2`, at Beta sliding clamp [1], the IC50 – broadly, the point on the concentration scale where inhibition reaches its midpoint – came to 347 µM and affinity was put at a Ki of 193 µM.
Turning to `COC(=O)C1CCc2c([nH]c3ccc(Cl)cc23)C1` (racemic), at Beta sliding clamp [1], the IC50 is over 1000 µM.
Take `NC(=O)Cn1c2c(c3cc(Br)ccc31)CC[C@@H](C(=O)O)C2`: in assay [2], the inhibition result was “Active”. Further, at Beta sliding clamp [1], the concentration for half-maximal inhibition (IC50) turned out to be 246 µM and the inhibition constant (Ki) (in general, a measure of affinity in units of concentration, obtained from inhibition or displacement) was determined as 137 µM.
For the compound `O=C(O)[C@H]1CCc2c([nH]c3ccc(Cl)cc23)C1`, at Beta sliding clamp [1], it took 442 µM to reach half-maximal inhibition (IC50) and the Ki was 246 µM.
On Beta sliding clamp [1], `O=C(O)[C@@H]1CCc2c([nH]c3ccc(I)cc23)C1` had an IC50 of 175 µM and a Ki of 97 µM.
On the same counts, the results for `NC(=O)Cn1c2c(c3cc(Cl)ccc31)CC[C@H](C(=O)O)C2` are 888 µM and 493 µM.
On the same counts, the results for `CC(C)C[C@H](NC(=O)Cn1c2c(c3cc(Br)ccc31)CC[C@@H](C(=O)O)C2)C(=O)O` are 48 µM and 27 µM.
For `O=C(Cn1c2c(c3cc(Br)ccc31)CC[C@@H](C(=O)O)C2)NCC1CCNCC1`, on Beta sliding clamp [1], it took 208 µM to reach half-maximal inhibition (IC50) and the affinity, expressed as Ki, was 116 µM.
For `O=C(O)CNC(=O)Cn1c2c(c3cc(Cl)ccc31)CC[C@@H](C(=O)O)C2`, the Kd (in general, the concentration at which binding is half-saturated) at Beta sliding clamp [3] stood at 24 µM. In addition, at Beta sliding clamp [1], the IC50 amounted to 85 µM and the Ki came to 47 µM.
Take `CC(C)(C)OC(=O)NCCCC[C@@H](NC(=O)Cn1c2c(c3cc(Br)ccc31)CC[C@@H](C(=O)O)C2)C(=O)O`: at Beta sliding clamp [1], the IC50 was found to be 115 µM and the Ki was found to be 64 µM.
On Beta sliding clamp [3], `O=C(Cn1c2c(c3cc(Br)ccc31)CC[C@@H](C(=O)O)C2)N[C@H](Cc1ccccc1)C(=O)O` had a dissociation constant Kd of 13 µM. Also, in assay [4], the inhibition result is “Active”. At Beta sliding clamp [1], this compound came in with a half-maximal inhibitory concentration (IC50) of 30 µM and an inhibition constant Ki of 17 µM.
In the case of `O=C(O)C1CCc2c([nH]c3ccc(Cl)cc23)C1` (racemic), on Beta sliding clamp [1], the IC50 was determined as 299 µM and the Ki came out at 166 µM.
For `OCC1CCc2c([nH]c3ccc(Cl)cc23)C1` (racemic), on Beta sliding clamp [1], the IC50 is over 1000 µM.
Compound `NC(=O)C1CCc2c([nH]c3ccc(Cl)cc23)C1` (racemic) came in with an IC50 on Beta sliding clamp [1] of over 1000 µM.
Consider `O=C(O)[C@@H]1CCc2c([nH]c3ccc(Br)cc23)C1`, for which, in assay [2], the inhibition result is “Active”. On Beta sliding clamp [1], this compound gave a concentration for half-maximal inhibition (IC50) of 157 µM and a Ki of 87 µM.
On to `NC(=O)c1ccc(CNC(=O)Cn2c3c(c4cc(Br)ccc42)CC[C@@H](C(=O)O)C3)cc1`, for which, on Beta sliding clamp [1], the midpoint of inhibition, the IC50, lay at 64 µM and the inhibitory constant (Ki) was 36 µM.
On the same counts, the results for `O=C(O)[C@@H]1CCc2c([nH]c3ccc(F)cc23)C1` are 817 µM and 454 µM.
Consider `O=C(O)[C@@H]1CCc2c([nH]c3ccc(Cl)cc23)C1`, for which the inhibition result in assay [2] was “Active”. Further, on Beta sliding clamp [1], the concentration for half-maximal inhibition (IC50) worked out at 134 µM and affinity was put at a Ki of 74 µM.
On Beta sliding clamp [1], `NC(=O)Cn1c2c(c3cc(Br)ccc31)CC[C@H](C(=O)O)C2` gave an IC50 of 285 µM and an inhibition constant (Ki) of 158 µM.
As to `O=C(O)CNC(=O)Cn1c2c(c3cc(Br)ccc31)CC[C@@H](C(=O)O)C2`, at Beta sliding clamp [3], the Kd came to 14 µM. Besides, the inhibition result in assay [4] is “Active”. On Beta sliding clamp [1], this compound came in with a concentration for half-maximal inhibition (IC50) of 20 µM and an inhibitory constant (Ki) of 11 µM.
At Beta sliding clamp [1], `O=C(O)[C@H]1CCc2c([nH]c3ccc(Br)cc23)C1` showed an IC50 of 328 µM and an inhibition constant (Ki) of 182 µM.
With `NC(=O)Cn1c2c(c3cc(Cl)ccc31)CC[C@@H](C(=O)O)C2`, in assay [2], the inhibition result is “Active”. On Beta sliding clamp [1], the IC50 came to 368 µM and the affinity, expressed as Ki, was 204 µM.
As to `CC(C)(C)OC(=O)N1CCC(CNC(=O)Cn2c3c(c4cc(Br)ccc42)CC[C@@H](C(=O)O)C3)CC1`, at Beta sliding clamp [1], the IC50 came to 150 µM and the Ki worked out at 83 µM.
On Beta sliding clamp [1], `NC(=O)Cc1ccc(NC(=O)Cn2c3c(c4cc(Cl)ccc42)CC[C@@H](C(=O)O)C3)cc1` showed an IC50 of 362 µM and an inhibition constant Ki of 201 µM.
At Beta sliding clamp [3], `O=C(Cn1c2c(c3cc(Br)ccc31)CC[C@@H](C(=O)O)C2)N[C@@H](Cc1ccccc1)C(=O)O` returned a Kd of 9 µM. The inhibition entry in assay [4] is “Active”. Further, at Beta sliding clamp [1], the midpoint of inhibition, the IC50, lay at 27 µM and affinity was put at a Ki of 15 µM.
At Beta sliding clamp [1], `NC(=O)CN1CCC(NC(=O)Cn2c3c(c4cc(Br)ccc42)CC[C@@H](C(=O)O)C3)CC1` displayed an IC50 of 307 µM and a Ki of 171 µM.
On the same counts, the results for `NC(=O)CNC(=O)Cn1c2c(c3cc(Br)ccc31)CC[C@@H](C(=O)O)C2` are 171 µM and 95 µM.
